The target in the assay is human activated kallikrein enzyme (Homo sapiens, UniProt P03952). Kind of assay: Inhibition of human activated plasma kallikrein, fluorogenic PFR-AMC substrate, 500 pM enzyme format. Format: biochemical. Conditions: 500 pM activated kallikrein; 300 μM PFR-AMC; 30 min preincubation; 10 min room temperature; pH 7.5; read-out: Primary Dose Response Assay: Average EC50. On the procedure: Compounds were evaluated for inhibition of the human activated kallikrein enzyme in two formats of an assay employing a fluorogenic peptide substrate. In one assay format, the concentrations of reagents were as follows: 20 mM Tris pH 7.5, 1 mM EDTA, 150 mM sodium chloride, 0.1% PEG-400, 0.1% Triton X-100, 500 pM activated kallikrein enzyme, 300 μM Pro-Phe-Arg-7-amido-4-methylcoumarin (PFR-AMC) substrate. Prior to reaction initiation with substrate, enzyme and inhibitors were preincubated for 30 min at room temperature. After initiation with substrate, reactions were incubated for 10 min at room temperature and fluorescence emission at 460 nm from 380 nm excitation measured with a microplate reader. In another assay format, the concentrations of reagents were as follows: 20 mM Tris pH 7.5, 1 mM EDTA, 150 mM sodium chloride, 0.1% PEG-400, 0.1% Triton X-100, 5 pM activated kallikrein enzyme, 300 uM PFR-AMC substrate. Prior to reaction initiation with substrate, enzyme and inhibitors were preincubated for 30 min at room temperature. After initiation with substrate, reactions were incubated for 18 hr at room temperature and fluorescence emission at 460 nm from 380 nm excitation measured with a microplate reader.
Table 35 provides the results of the assay in the format with 500 pM activated kallikrein assay.

A value given as a limit tells only on which side of the number the result lay.

human activated kallikrein enzyme, sequence (P03952 391-638 limits assumed): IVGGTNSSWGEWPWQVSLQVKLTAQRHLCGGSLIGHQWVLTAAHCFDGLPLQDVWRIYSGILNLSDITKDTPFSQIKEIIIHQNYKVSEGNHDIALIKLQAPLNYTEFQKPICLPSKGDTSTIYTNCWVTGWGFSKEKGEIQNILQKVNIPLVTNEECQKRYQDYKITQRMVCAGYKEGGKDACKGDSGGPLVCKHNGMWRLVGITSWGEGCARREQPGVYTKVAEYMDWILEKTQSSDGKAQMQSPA
human activated kallikrein enzyme, sequence (P03952 20-390 partner limits assumed): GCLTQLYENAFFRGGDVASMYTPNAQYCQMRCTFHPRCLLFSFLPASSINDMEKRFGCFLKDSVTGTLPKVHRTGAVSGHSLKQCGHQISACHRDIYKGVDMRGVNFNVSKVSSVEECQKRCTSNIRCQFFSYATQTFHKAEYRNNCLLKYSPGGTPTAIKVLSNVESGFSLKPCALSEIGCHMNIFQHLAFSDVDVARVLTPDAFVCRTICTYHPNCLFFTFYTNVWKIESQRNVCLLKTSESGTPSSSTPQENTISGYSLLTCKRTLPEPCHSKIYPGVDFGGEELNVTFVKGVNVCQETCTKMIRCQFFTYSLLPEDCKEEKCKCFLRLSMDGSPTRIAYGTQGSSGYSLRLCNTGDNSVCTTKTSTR

On to `Cc1cc(Cn2cc(C(=O)NCc3c(C)cc4c(N)nccc4c3C)cn2)ccc1CC(=O)N(C)C` [Example 26, N-((1-amino-5,7-dimethylisoquinolin-6-yl)methyl)-1-(4-(2-(dimethylamino)-2-oxoethyl)-3-methylbenzyl)-1H-pyrazole-4-carboxamide], for which the EC50 is under 1 nM.

Regarding `Cc1ccc2ccc(Cn3cc(C(=O)NCc4c(C)cc5c(N)nccc5c4C)cn3)cc2n1` [Example 27, N-((1-amino-5,7-dimethylisoquinolin-6-yl)methyl)-1-((2-methylquinolin-7-yl)methyl)-1H-pyrazole-4-carboxamide], the EC50 is under 1 nM.

Consider `Cc1cc2c(N)nccc2c(C)c1CNC(=O)c1cnn(Cc2ccc3ncc(C4CC4)cc3c2)c1` [Example 28, N-((1-amino-5,7-dimethylisoquinolin-6-yl)methyl)-1-((3-cyclopropylquinolin-6-yl)methyl)-1H-pyrazole-4-carboxamide], for which the EC50 was under 1 nM.

`Cc1cc2c(N)nccc2c(C)c1CNC(=O)c1cnn(Cc2ccc(C3CC3)cc2)c1` [Example 29, N-((1-amino-5,7-dimethylisoquinolin-6-yl)methyl)-1-(4-cyclopropylbenzyl)-1H-pyrazole-4-carboxamide]: the EC50 lay within 1 to 10 nM.

Regarding `Cc1cc2c(N)nccc2c(C)c1CNC(=O)c1cnn(Cc2ccc(Cc3cccn(C)c3=O)cc2)c1` [Example 30, N-((1-amino-5,7-dimethylisoquinolin-6-yl)methyl)-1-(4-((1-methyl-2-oxo-1,2-dihydropyridin-3-yl)methyl)benzyl)-1H-pyrazole-4-carboxamide], the EC50 is under 1 nM.

Consider `Cc1cc2c(N)nccc2c(C)c1CNC(=O)c1cnn(Cc2cccc(C3CC3)c2)c1` [Example 31, N-((1-amino-5,7-dimethylisoquinolin-6-yl)methyl)-1-(3-cyclopropylbenzyl)-1H-pyrazole-4-carboxamide], for which the EC50 was in the range of 1 to 10 nM.

In the case of `Cc1cc2c(N)nccc2c(C)c1CNC(=O)c1cnn(Cc2ccccc2C#N)c1` [Example 32, N-((1-amino-5,7-dimethylisoquinolin-6-yl)methyl)-1-(2-cyanobenzyl)-1H-pyrazole-4-carboxamide], the EC50 lay within 100 to 1000 nM.

With `COc1ccccc1Cn1cc(C(=O)NCc2c(C)cc3c(N)nccc3c2C)cn1` [Example 33, N-((1-amino-5,7-dimethylisoquinolin-6-yl)methyl)-1-(2-methoxybenzyl)-1H-pyrazole-4-carboxamide], the EC50 lay in the range of 100 to 1000 nM.

Consider `Cc1cc2c(N)nccc2c(C)c1CNC(=O)c1cnn([C@@H](C)c2ccccc2)c1` [Example 34, (S)-N-((1-amino-5,7-dimethylisoquinolin-6-yl)methyl)-1-(1-phenylethyl)-1H-pyrazole-4-carboxamide], for which the EC50 was 100 to 1000 nM.

For the compound `Cc1ccc(Cn2cc(C(=O)NCc3c(C)cc4c(N)nccc4c3C)cn2)cc1` [Example 35, N-((1-amino-5,7-dimethylisoquinolin-6-yl)methyl)-1-(4-methylbenzyl)-1H-pyrazole-4-carboxamide], the EC50 was in the range of 10 to 100 nM.

With `Cc1ccc(Cn2cc(C(=O)NCc3c(C)cc4c(N)nccc4c3C)cn2)cc1C(F)(F)F` [Example 36, N-((1-amino-5,7-dimethylisoquinolin-6-yl)methyl)-1-(4-methyl-3-(trifluoromethyl)benzyl)-1H-pyrazole-4-carboxamide], the EC50 is 1 to 10 nM.

As to `Cc1cc2c(N)nccc2c(C)c1CNC(=O)c1cnn(Cc2cc(Cl)cc(Cl)c2)c1` [Example 37, N-((1-amino-5,7-dimethylisoquinolin-6-yl)methyl)-1-(3,5-dichlorobenzyl)-1H-pyrazole-4-carboxamide], the EC50 was in the range of 10 to 100 nM.

Turning to `Cc1cc2c(N)nccc2c(C)c1CNC(=O)c1cnn(Cc2ccccc2F)c1` [Example 38, N-((1-amino-5,7-dimethylisoquinolin-6-yl)methyl)-1-(2-fluorobenzyl)-1H-pyrazole-4-carboxamide], the EC50 is over 1000 nM.

`Cc1cc2c(N)nccc2c(C)c1CNC(=O)c1cnn(Cc2ccc(F)cc2)c1` [Example 39, N-((1-amino-5,7-dimethylisoquinolin-6-yl)methyl)-1-(4-fluorobenzyl)-1H-pyrazole-4-carboxamide]: the EC50 is 100 to 1000 nM.

Turning to `Cc1ccccc1Cn1cc(C(=O)NCc2c(C)cc3c(N)nccc3c2C)cn1` [Example 40, N-((1-amino-5,7-dimethylisoquinolin-6-yl)methyl)-1-(2-methylbenzyl)-1H-pyrazole-4-carboxamide], the EC50 was in the range of 100 to 1000 nM.

In the case of `Cc1cccc(Cn2cc(C(=O)NCc3c(C)cc4c(N)nccc4c3C)cn2)c1` [Example 41, N-((1-amino-5,7-dimethylisoquinolin-6-yl)methyl)-1-(3-methylbenzyl)-1H-pyrazole-4-carboxamide], the EC50 was 10 to 100 nM.

With `Cc1cc2c(N)nccc2c(C)c1CNC(=O)c1cnn(Cc2ccccc2C(F)(F)F)c1` [Example 42, N-((1-amino-5,7-dimethylisoquinolin-6-yl)methyl)-1-(2-(trifluoromethyl)benzyl)-1H-pyrazole-4-carboxamide], the EC50 is over 1000 nM.

With `COc1cccc(Cn2cc(C(=O)NCc3c(C)cc4c(N)nccc4c3C)cn2)c1` [Example 43, N-((1-amino-5,7-dimethylisoquinolin-6-yl)methyl)-1-(3-methoxybenzyl)-1H-pyrazole-4-carboxamide], the EC50 lay within 10 to 100 nM.

For the compound `Cc1cc2c(N)nccc2c(C)c1CNC(=O)c1cnn(Cc2ccc(Cc3nnco3)cc2)c1` [Example 44, 1-(4-((1,3,4-oxadiazol-2-yl)methyl)benzyl)-N-((1-amino-5,7-dimethylisoquinolin-6-yl)methyl)-1H-pyrazole-4-carboxamide], the EC50 lay within 1 to 10 nM.

As for `Cc1cc2c(N)nccc2c(C)c1CNC(=O)c1cnn(Cc2cccc(F)c2)c1` [Example 45, N-((1-amino-5,7-dimethylisoquinolin-6-yl)methyl)-1-(3-fluorobenzyl)-1H-pyrazole-4-carboxamide], the EC50 lay within 100 to 1000 nM.

With `Cc1cc2c(N)nccc2c(C)c1CNC(=O)c1cnn(Cc2ccc(-n3ccccc3=O)nc2)c1` [Example 46, N-((1-amino-5,7-dimethylisoquinolin-6-yl)methyl)-1-((2-oxo-2H-[1,2'-bipyridin]-5'-yl)methyl)-1H-pyrazole-4-carboxamide], the concentration giving a half-maximal response (EC50) was 10 to 100 nM.

For the compound `Cc1cc2c(N)nccc2c(C)c1CNC(=O)c1cnn(Cc2oc3ccccc3c2C)c1` [Example 47, N-((1-amino-5,7-dimethylisoquinolin-6-yl)methyl)-1-((3-methylbenzofuran-2-yl)methyl)-1H-pyrazole-4-carboxamide], the EC50 lay within 10 to 100 nM.

Consider `Cc1cc2c(N)nccc2c(C)c1CNC(=O)c1cnn(Cc2ccc(CCn3cccn3)cc2)c1` [Example 48, 1-(4-(2-(1H-pyrazol-1-yl)ethyl)benzyl)-N-((1-amino-5,7-dimethylisoquinolin-6-yl)methyl)-1H-pyrazole-4-carboxamide], for which the EC50 lay within 1 to 10 nM.

Turning to `Cc1cc2c(N)nccc2c(C)c1CNC(=O)c1cnn(Cc2ccc(CCn3ccccc3=O)cc2)c1` [Example 49, N-((1-amino-5,7-dimethylisoquinolin-6-yl)methyl)-1-(4-(2-(2-oxopyridin-1(2H)-yl)ethyl)benzyl)-1H-pyrazole-4-carboxamide], the EC50 was 1 to 10 nM.

Source of the values: patent US20260374754A1, “N-((ISOQUINOLIN-6-YL)METHYL)-1H-PYRAZOLE-4-CARBOXAMIDE DERIVATIVES AS PLASMA KALLIKREIN INHIBITORS FOR THE TREATMENT OF HEREDITARY ANGIODEMA” (Takeda Pharmaceutical Company Limited, priority 2022, published 2026).
